The term IC50 denotes the midpoint of a concentration-inhibition curve. The low end stands for greater potency in that assay, the high end for weaker potency in that assay.

Test [1] concerns the target Glycogen synthase kinase-3 alpha (Homo sapiens, UniProt P49840). The experiment in a line: TR-FRET Assay. In outline: (§1)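 TR-FRET readout: streptavidin-d2 (40 nM in added detection mix) plus Tb-anti-pSer641 Ab (2 nM in mix). Steps were 30 min compound preincubation, kinase reaction, then EDTA stop.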
On the technique in general: TR-FRET usually uses a lanthanide donor and a delayed reading to cut background.

Test [2] has as its target Glycogen synthase kinase-3 beta (Homo sapiens, UniProt P49841). Nature of the test: TR-FRET Assay. Summed up:
as §1

Values joined by “and” are separate entries in the source; they are usually repeats but may differ in a detail not shown here. Equal values may be shown once.

Sequence of Glycogen synthase kinase-3 beta (P49841 whole entry): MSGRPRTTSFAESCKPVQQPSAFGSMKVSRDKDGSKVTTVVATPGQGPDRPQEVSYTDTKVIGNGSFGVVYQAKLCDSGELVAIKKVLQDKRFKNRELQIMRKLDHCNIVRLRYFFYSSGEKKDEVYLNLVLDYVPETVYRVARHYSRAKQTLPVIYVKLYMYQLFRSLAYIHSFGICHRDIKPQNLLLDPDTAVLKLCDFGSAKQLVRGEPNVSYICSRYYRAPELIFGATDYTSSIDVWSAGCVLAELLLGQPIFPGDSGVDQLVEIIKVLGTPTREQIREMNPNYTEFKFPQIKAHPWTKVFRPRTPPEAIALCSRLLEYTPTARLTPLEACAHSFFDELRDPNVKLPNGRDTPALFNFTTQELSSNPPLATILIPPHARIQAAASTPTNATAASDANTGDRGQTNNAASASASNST
Sequence of Glycogen synthase kinase-3 alpha (P49840 whole entry): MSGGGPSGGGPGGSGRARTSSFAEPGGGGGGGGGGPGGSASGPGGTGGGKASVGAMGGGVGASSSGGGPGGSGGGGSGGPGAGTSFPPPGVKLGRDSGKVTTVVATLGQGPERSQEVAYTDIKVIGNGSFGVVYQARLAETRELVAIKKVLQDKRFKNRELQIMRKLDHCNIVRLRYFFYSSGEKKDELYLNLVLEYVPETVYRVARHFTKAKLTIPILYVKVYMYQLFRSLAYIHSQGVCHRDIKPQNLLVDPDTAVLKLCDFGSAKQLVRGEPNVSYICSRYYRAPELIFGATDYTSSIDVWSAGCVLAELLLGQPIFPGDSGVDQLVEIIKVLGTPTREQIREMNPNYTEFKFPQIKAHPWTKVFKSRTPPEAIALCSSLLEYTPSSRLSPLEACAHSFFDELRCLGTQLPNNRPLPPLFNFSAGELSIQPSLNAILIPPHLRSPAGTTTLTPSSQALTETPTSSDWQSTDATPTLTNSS

Regarding `CC[C@@]1(c2cccc(-c3ccnc(C)c3)c2)C2=C(CC(C)(C)CC2=O)NC2N=NC(C(F)(F)F)=C21` (some centres not stated) [US20250313563, Compound 917289], the values for the IC50 in test [1] and in test [2] were 100 to 1000 nM and 1000 to 5000 nM, respectively.
Take `CC1(C)CC(=O)C2=C(C1)NC1=C(CN=N1)C21CCN(S(=O)(=O)c2cccnc2)CC1` [US20250313563, Compound 947613]: the half-maximal inhibitory concentration (IC50) in test [1] is < 100 nM and 100 to 1000 nM; in test [2] it was < 100 nM and 1000 to 5000 nM.
As for `CC(C)(C)CC1=C2C(N=N1)NC1=C(C(=O)CC(C)(C)C1)C21CCc2c(F)cccc21` (configuration not stated) [US20250313563, Compound 789524], the concentration for half-maximal inhibition (IC50) in test [1] was 100 to 1000 nM; in test [2] it was less than 100 nM.
For `CCC1(c2cccc(-c3ccnc(C)c3)c2)C2=C(CC(C)(C)CC2=O)NC2N=NC(C)=C21` (configuration not stated) [US20250313563, Compound 883987], in that order: less than 100 nM and 100 to 1000 nM.
With `CC1(C)CC(=O)C2=C(C1)NC1=C(CN=N1)C2(C)c1cc(Cl)ccc1Cl` (configuration not stated) [US20250313563, Compound 806605], the half-inhibitory concentration (IC50) is 1000 to 5000 nM in test [1] and more than 5000 nM in test [2].
For `Cc1cc(S(=O)(=O)N2CCC3(CC2)C2=C(N=NC2)NC2=C3C(=O)CC(C)(C)C2)n(C)n1` [US20250313563, Compound 947608], in that order: less than 100 nM and less than 100 nM.
`CC(C)(C)CC1=C2C(N=N1)NC1=C(C(=O)CC(C)(C)C1)C21CCCc2ccccc21` (configuration not stated) [US20250313563, Compound 810495]: the IC50 in test [1] is 100 to 1000 nM; in test [2], less than 100 nM.
Consider `Cn1cncc1-c1cccc([C@]2(C)C3=C(CC(C)(C)CC3=O)NC3=C2C(CC(C)(C)C)N=N3)c1` (some centres not stated) [US20250313563, Compound 126014], for which the IC50 in test [1] and in test [2] was 100 to 1000 nM throughout.
On to `CC[C@@]1(c2cccc(-c3cnn(C(C)C)c3F)c2)C2=CN=NC2NC2=C1C(=O)NC(C)(C)C2` (some centres not stated) [US20250313563, Compound 950061], for which the IC50 in test [1] was 100 to 1000 nM; in test [2] it was more than 5000 nM.
For the molecule `CC[C@]1(c2cccc(-c3ccnn3C)c2)C2=C(CC(C)(C)CC2=O)NC2N=NC(C)=C21` (some centres not stated) [US20250313563, Compound 913046], the IC50 in test [1] is 1000 to 5000 nM and > 5000 nM; in test [2] it was more than 5000 nM.
As for `CC1(C)CC(=O)C2=C(C1)NC1=C(CN=N1)C21CN(S(=O)(=O)C2CC2)C1` [US20250313563, Compound 913259], the IC50 in test [1] and in test [2] was less than 100 nM each time.
In the case of `CC1(C)CC(=O)C2=C(C1)NC1=C(CN=N1)[C@@]21CCOC2(CCOCC2)C1` [US20250313563, Compound 924306], the concentration for half-maximal inhibition (IC50) in test [1] and in test [2] was 100 to 1000 nM each time.
With `CC[C@]1(c2cccc([C@H](C)c3ncccn3)c2)C2=CN=NC2NC2=C1C(=O)CC(C)(C)C2` (some centres not stated) [US20250313563, Compound 948057], the figures for the half-maximal inhibitory concentration (IC50) in test [1] and in test [2] were 100 to 1000 nM and 1000 to 5000 nM, respectively.
For `Cc1cc(C)cc(C(=O)N2CC3(C2)C[C@]2(CO3)C3=C(N=NC3)NC3=C2C(=O)CC(C)(C)C3)c1` [US20250313563, Compound 948222], in that order: 100 to 1000 nM and 1000 to 5000 nM.
Turning to `CC[C@@]1(c2cccc(-c3ccncc3C)c2)C2=CN=NC2NC2=C1C(=O)NC(C)(C)C2` (some centres not stated) [US20250313563, Compound 947574], the concentration for half-maximal inhibition (IC50) in test [1] and in test [2] was less than 100 nM in each case.
Turning to `CCC1(c2cccc(N(C)c3cccc(OC)n3)c2)C2=CN=NC2NC2=C1C(=O)CC(C)(C)C2` (configuration not stated) [US20250313563, Compound 913121], the IC50 is less than 100 nM in test [1] and 100 to 1000 nM in test [2].
For `CC[C@@]1(c2cccc(N(C)c3cc(C)ccn3)c2)C2=CN=NC2NC2=C1C(=O)CC(C)(C)C2` (some centres not stated) [US20250313563, Compound 945609], in that order: less than 100 nM and 100 to 1000 nM.
As for `CC[C@@]1(c2cccc(-c3cn(C)nc3C)c2)C2=C(CC(C)(C)NC2=O)NC2N=NC(C)=C21` (some centres not stated) [US20250313563, Compound 946001], the half-maximal inhibitory concentration (IC50) in test [1] is less than 100 nM; in test [2], < 100 nM and 100 to 1000 nM.
With `CC1(C)CC(=O)C2=C(C1)NC1=C(CN=N1)C21CCN(S(=O)(=O)c2ccc3c(c2)OCCO3)CC1` [US20250313563, Compound 947900], the IC50 in test [1] and in test [2] was less than 100 nM throughout.
As for `CCc1ncc(S(=O)(=O)N2CCC3(CC2)C2=CN=NC2NC2=C3C(=O)NC(C)(C)C2)s1` (configuration not stated) [US20250313563, Compound 947837], the IC50 in test [1] and in test [2] was less than 100 nM in each case.
For `CC[C@@]1(c2cccc(N3CCOCC3)c2)C2=C(CC(C)(C)CC2=O)NC2N=NC(C(F)(F)F)=C21` (some centres not stated) [US20250313563, Compound 816886], the IC50 in test [1] and in test [2] was 1000 to 5000 nM each time.
As for `CC1(C)CC2=C(C(=O)N1)C1(CCN(S(=O)(=O)C3CCCC3)CC1)C1=C(N=NC1)N2` [US20250313563, Compound 943960], the IC50 in test [1] is < 100 nM and 100 to 1000 nM; in test [2], < 100 nM and 100 to 1000 nM.
On to `CCC1(c2cccc(Cl)c2)C2=C(CC(C)(C)CC2=O)NC2N=NC(C)=C21` (configuration not stated) [US20250313563, Compound 789336], for which the IC50 in test [1] is less than 100 nM; in test [2], 100 to 1000 nM.
Take `CCc1cc(-c2cccc([C@@]3(CC)C4=CN=NC4NC4=C3C(=O)NC(C)(C)C4)c2)ccn1` (some centres not stated) [US20250313563, Compound 948360]: the IC50 in test [1] is 1000 to 5000 nM; in test [2] it was more than 5000 nM.
For `CC[C@]1(c2ccccc2)C2=CN=NC2NC2=C1C(=O)C(O)C(C)(C)C2` (some centres not stated) [US20250313563, Compound 946056], in that order: 100 to 1000 nM and more than 5000 nM.
`CC1(C)CC(=O)C2=C(C1)NC1=C(CN=N1)C21COC2(CN(C(=O)C(C)(F)F)C2)C1` (configuration not stated) [US20250313563, Compound 947275]: the IC50 in test [1] was < 100 nM and 100 to 1000 nM; in test [2], < 100 nM and 100 to 1000 nM.
Consider `CC[C@]1(c2ccccc2)C2=CN=NC2NC2=C1C(=O)C[C@H](C)C2` (some centres not stated) [US20250313563, Compound 789010], for which the IC50 in test [1] and in test [2] was 100 to 1000 nM each time.
Take `CC[C@]1(c2cccc(S(=O)(=O)C(C)C)c2)C2=CN=NC2NC2=C1C(=O)CC(C)(C)C2` (some centres not stated) [US20250313563, Compound 913134]: the IC50 in test [1] lay within 100 to 1000 nM; in test [2], 1000 to 5000 nM.
For `CC1(C)CC(=O)C2=C(C1)NC1N=NC(CCC(F)(F)F)=C1[C@]21CCc2c(F)cccc21` (some centres not stated) [US20250313563, Compound 874324], in that order: 100 to 1000 nM and 100 to 1000 nM.
As for `CC[C@]1(c2cccc(N(C)c3ncccn3)c2)C2=CN=NC2NC2=C1C(=O)CC(C)(C)C2` (some centres not stated) [US20250313563, Compound 911980], the IC50 in test [1] was less than 100 nM; in test [2], < 100 nM and 100 to 1000 nM.
For the molecule `CC1(C)CC(=O)C2=C(C1)NC1=C(CN=N1)C21CCN(S(=O)(=O)c2cccc3ccncc23)CC1` [US20250313563, Compound 947901], the IC50 in test [1] and in test [2] was less than 100 nM throughout.
With `CCC1(c2cccc(CN(C)C(C)=O)c2)C2=CN=NC2NC2=C1C(=O)CC(C)(C)C2` (configuration not stated) [US20250313563, Compound 865194], the IC50 is 100 to 1000 nM in test [1] and 1000 to 5000 nM in test [2].
`CC1(C)CC(=O)C2=C(C1)NC1N=NC(CC(F)(F)F)=C1[C@]21CCc2c(F)cccc21` (some centres not stated) [US20250313563, Compound 816838]: the IC50 in test [1] and in test [2] was 100 to 1000 nM in each case.
Take `CC[C@@]1(c2cccc(Br)c2)C2=CN=NC2NC2=C1C(=O)C[C@@H](C(F)(F)F)C2` (some centres not stated) [US20250313563, Compound 826652]: the half-maximal inhibitory concentration (IC50) in test [1] is less than 100 nM; in test [2], 100 to 1000 nM.
Turning to `CCC1(c2cccc(S(=O)(=O)c3ccccc3)c2)C2=CN=NC2NC2=C1C(=O)CC(C)(C)C2` (configuration not stated) [US20250313563, Compound 913123], the IC50 in test [1] is less than 100 nM; in test [2] it was < 100 nM and 100 to 1000 nM.
With `CC[C@]1(c2cccc(-c3cc(C)nn3C)c2)C2=C(N=NC2)NC2=C1C(=O)C(C)(C)C2` [US20250313563, Compound 950827], the IC50 in test [1] and in test [2] was more than 5000 nM in each case.
Regarding `CCC1(c2cccc(C3CCOCC3)c2)C2=CN=NC2NC2=C1C(=O)CC(C)(C)C2` (configuration not stated) [US20250313563, Compound 791273], the IC50 is less than 100 nM in test [1] and 100 to 1000 nM in test [2].
For `CC[C@@]1(c2ccccc2)C2=CN=NC2NC2=C1C(=O)C[C@@](C)(C(F)(F)F)C2` (some centres not stated) [US20250313563, Compound 819569], in that order: 100 to 1000 nM and 1000 to 5000 nM.
For `CC(C)(C)CC1N=NC2=C1[C@](C)(c1cc(S(C)(=O)=O)ccc1F)C1=C(CC(C)(C)CC1=O)N2` (some centres not stated) [US20250313563, Compound 125976], in that order: 1000 to 5000 nM and 100 to 1000 nM.
For `CC1(C)CC(=O)C2=C(C1)NC1=C(CN=N1)C21CCN(S(C)(=O)=O)C1` (configuration not stated) [US20250313563, Compound 912092], in that order: less than 100 nM and less than 100 nM.
`CCC1(c2cccc(N3CCCCC3)c2)C2=C(CC(C)(C)CC2=O)NC2N=NC(C)=C21` (configuration not stated) [US20250313563, Compound 877311]: the IC50 in test [1] and in test [2] was less than 100 nM throughout.
As for `CC[C@@]1(c2cccc(C(F)(F)F)c2)C2=CN=NC2NC2=C1C(=O)N(c1cc(C)n(C)n1)CC2` (some centres not stated) [US20250313563, Compound 951954], the IC50 in test [1] and in test [2] was more than 5000 nM throughout.
Turning to `CC[C@@]1(c2cccc(-c3ccnc4cnccc34)c2)C2=CN=NC2NC2=C1C(=O)NC(C)(C)C2` (some centres not stated) [US20250313563, Compound 949110], the IC50 in test [1] was 1000 to 5000 nM; in test [2] it was more than 5000 nM.
For `COC(=O)C1CCC2(CC1)C1=C(N=NC1)NC1=C2C(=O)CC(C)(C)C1` (configuration not stated) [US20250313563, Compound 918270], in that order: 100 to 1000 nM and 100 to 1000 nM.
For `CC1(C)CC(=O)C2=C(C1)NC1=NN=C(Br)C1C21CCNc2ccccc21` (configuration not stated) [US20250313563, Compound 810460], in that order: 1000 to 5000 nM and more than 5000 nM.
In the case of `CC[C@@]1(c2cccc(-c3cn(C)nc3C)c2)C2=C(CC(C)(C)NC2=O)NC2N=NC(F)=C21` (some centres not stated) [US20250313563, Compound 949185], the half-maximal inhibitory concentration (IC50) in test [1] is less than 100 nM; in test [2], < 100 nM and 1000 to 5000 nM.

Source of the values: BindingDB's records for patent US20250313563 (The Broad Institute, 2025).
